In patent US6117890A, “Method for treating bipolar disorder” (Eli Lilly and Company, priority 1998, dated 2000):

Tests used:
[1] = molecular target: muscarinic receptors (3H-oxotremorine-M binding); assay: 3H-oxotremorine-M binding study; conditions: radioligand 3H-oxotremorine-M; read-out: inhibition constant (Ki) for binding of 3H-oxotremorine-M
[2] = tested on: m4 receptors (CHO m4 cells); assay: cAMP formation in CHO m4 cells treated with pertussis toxin; assay type: cell-based
Excerpt: Muscarinic agonists stimulate the formation of CAMP up to 10 fold in CHO m4 cells treated with pertussisi toxin and the pharmacology is consistent with the mediation by m4 receptors. Eckols K. Soc. Neurosci Abstr., 21:2040 (1995).

CCCCCCOc1nsnc1C1=CCCN(C)C1 [xanomeline, 3-(4-hexyloxy-1,2,5-thiadiazol-3-yl)-1,2,5,6-tetrahydro-1-methylpyridine]
Ki [1]: 2 nM | stimulation of formation of cAMP [2]: efficaciously and potently stimulated the formation of cAMP
